Measurements as given in US5418162A, “Serotonin transporter CDNA” (Duke University, priority 1992, dated 1995).

How the values were obtained:
[1] = target: rat 5HT transporter (rSERT) (Rattus norvegicus, UniProt P31652); test: [3H]5HT transport assay in HeLa cells transfected with BS4E-10 cDNA (rSERT); assay type: cell-based
[2] = target: human 5HT transporter (hSERT) (Homo sapiens, UniProt P31645); test: [3H]5HT transport assay in HeLa cells transfected with hSERT cDNA
[3] = test system: NCCc1c[nH]c2ccc(O)cc12; test: cells, lysate or membranes; conditions: other: increasing concentrations of unlabeled 5HT, Eadie-Hofstee transformation, transfected HeLa cells; pH 7.4; 37.0 °C

human 5HT transporter (hSERT), sequence (P31645 whole entry): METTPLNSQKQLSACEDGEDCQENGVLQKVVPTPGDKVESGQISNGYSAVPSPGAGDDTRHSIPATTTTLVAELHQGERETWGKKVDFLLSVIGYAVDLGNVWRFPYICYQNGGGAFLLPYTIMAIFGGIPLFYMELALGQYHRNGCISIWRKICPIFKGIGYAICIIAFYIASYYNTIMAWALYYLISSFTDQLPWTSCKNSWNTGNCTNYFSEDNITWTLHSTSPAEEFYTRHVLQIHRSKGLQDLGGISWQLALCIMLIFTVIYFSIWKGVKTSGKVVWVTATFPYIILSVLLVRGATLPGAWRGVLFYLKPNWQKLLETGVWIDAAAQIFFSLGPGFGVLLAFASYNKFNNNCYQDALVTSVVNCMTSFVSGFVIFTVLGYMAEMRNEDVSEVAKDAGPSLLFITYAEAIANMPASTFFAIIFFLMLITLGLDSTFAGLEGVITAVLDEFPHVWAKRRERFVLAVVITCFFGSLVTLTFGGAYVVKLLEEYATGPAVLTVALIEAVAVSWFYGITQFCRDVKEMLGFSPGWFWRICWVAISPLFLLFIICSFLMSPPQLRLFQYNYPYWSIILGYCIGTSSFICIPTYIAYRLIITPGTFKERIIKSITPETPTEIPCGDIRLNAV
rat 5HT transporter (rSERT), sequence (P31652 whole entry): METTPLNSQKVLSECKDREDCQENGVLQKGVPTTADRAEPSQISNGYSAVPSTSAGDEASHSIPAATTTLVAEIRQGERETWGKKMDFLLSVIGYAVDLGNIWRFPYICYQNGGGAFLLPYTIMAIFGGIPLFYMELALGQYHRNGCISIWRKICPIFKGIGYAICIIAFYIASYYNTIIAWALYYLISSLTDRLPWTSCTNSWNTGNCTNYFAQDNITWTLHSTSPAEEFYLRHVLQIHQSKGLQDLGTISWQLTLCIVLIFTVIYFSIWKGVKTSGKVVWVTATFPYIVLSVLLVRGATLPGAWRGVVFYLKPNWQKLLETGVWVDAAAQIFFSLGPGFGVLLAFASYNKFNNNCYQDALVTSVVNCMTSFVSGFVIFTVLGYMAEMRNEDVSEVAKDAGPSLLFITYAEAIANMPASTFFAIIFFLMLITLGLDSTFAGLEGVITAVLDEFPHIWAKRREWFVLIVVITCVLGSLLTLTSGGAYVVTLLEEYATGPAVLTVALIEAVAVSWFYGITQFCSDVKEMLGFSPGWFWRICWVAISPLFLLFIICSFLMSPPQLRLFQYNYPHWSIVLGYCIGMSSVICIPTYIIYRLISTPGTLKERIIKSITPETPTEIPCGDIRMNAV

NCCc1c[nH]c2ccc(O)cc12 [5HT, 5-hydroxytryptamine]
Vmax of 5HT transport ([1]; increasing concentrations of unlabeled 5HT, transfected HeLa cells): 6.7×10^-18 mol/cell/min
Km ([1]; read-out: Km of 5HT transport, increasing concentrations of unlabeled 5HT, transfected HeLa cells): 1500 nM

NCCc1ccc(O)c(O)c1 [Dopamine, dopamine]
Ki [1]: > 10 µM

COC(=O)[C@H]1[C@@H](c2ccc(I)cc2)C[C@@H]2CC[C@H]1N2C.O=C(O)C(O)C(O)C(=O)O [RTI-55, 3β-[4-iodophenyl]tropan-2β-carboxylic acid methyl ester tartrate]
inhibition of 5HT uptake (in words) [2]: increased potency over cocaine

CC(N)Cc1ccccc1 (stereo not drawn) [amphetamine]
inhibition of 5HT uptake (in words) [2]: block 5HT transport at low micromolar concentrations

COC(=O)[C@H]1[C@@H](OC(=O)c2ccccc2)C[C@@H]2CC[C@H]1N2C [cocaine]
potency for 5HT transport inhibition compared with inhibition of the cloned NA carrier ([1]; rSERT in transfected cells vs cloned NA transporter): predictably lower potency
antagonism of 5HT transport (in words) ([1]; transfected HeLa cells): blocked 5HT transport
inhibition of 5HT uptake (in words) [2]: block 5HT transport at low micromolar concentrations

NCCc1c[nH]cn1 [histamine]
Ki [1]: > 10 µM

OC1(c2ccc(Cl)cc2)c2ccccc2C2=NCCN21 (stereo not drawn) [mazindol]
Ki [1]: 10 µM

NC[C@H](O)c1ccc(O)c(O)c1 [noradrenaline]
Ki [1]: > 10 µM

human 5HT transporter (hSERT) (Homo sapiens)
Km [3]: 463 nM
